From ChEMBL document CHEMBL5303304, “EUbOPEN Chemogenomics Library - IncuCyte” (2023)

Key:
Format in all cases: toxicity, cell-based
Fibroblast = assay: Incucyte cell viability with human fibroblast; details: 10 µM, compound concentration 10 uM
U2OS = assay: Incucyte cell viability with U2OS; details: human, 10 µM, compound concentration 10 uM
HEK-293T = assay: Incucyte cell viability with HEK293T; details: human, 10 µM, compound concentration 10 uM
Further: unitless GR value; below 1 slowed growth and below 0 cell loss.

Structure (SMILES) | Growth Rate (Fibroblast; 0 h, replicate number 1) | Growth Rate (Fibroblast; 0 h, replicate number 2) | Growth Rate (Fibroblast; 24 h, replicate number 2) | Growth Rate (U2OS; 12 h, replicate number 2) | Growth Rate (U2OS; 18 h, replicate number 1) | Growth Rate (U2OS; 18 h, replicate number 2) | Growth Rate (U2OS; 24 h, replicate number 1) | Growth Rate (U2OS; 24 h, replicate number 2) | Growth Rate (HEK-293T; 0 h, replicate number 1) | Growth Rate (HEK-293T; 6 h, replicate number 1) | Growth Rate (HEK-293T; 6 h, replicate number 2) | Growth Rate (HEK-293T; 12 h, replicate number 2) | Growth Rate (HEK-293T; 18 h, replicate number 2) | Growth Rate (Fibroblast; 6 h, replicate number 1) | Growth Rate (Fibroblast; 6 h, replicate number 2) | Growth Rate (Fibroblast; 12 h, replicate number 2) | Growth Rate (U2OS; 0 h, replicate number 1) | Growth Rate (U2OS; 6 h, replicate number 1) | Growth Rate (U2OS; 6 h, replicate number 2) | Growth Rate (U2OS; 12 h, replicate number 1) | other results
CC(=O)c1ccc2c(c1)/C(=C(/Nc1cccc(C#N)c1)c1ccc3c(c1)OCCO3)C(=O)N2 | 0.26 | -0.78 | 0.84 | 0.72 | 0.73 | 0.5 | 0.52 | 0.43 | -0.8 | 0.26 | 0.65 | 0.12 | -0.03 |  |  |  |  |  |  |  | Growth Rate (HEK-293T; 12 h, replicate number 1): -0.22; Growth Rate (HEK-293T; 18 h, replicate number 1): -0.15; Growth Rate (HEK-293T; 24 h, replicate number 1): -0.16; Growth Rate (HEK-293T; 24 h, replicate number 2): -0.02
COc1c(NC(=O)c2cc3cccc(Oc4ccnc(C(=O)N5CCN(C)CC5)c4)c3n2C)cc(C(C)(C)C)cc1NS(C)(=O)=O |  |  |  | 0.69 | 0.83 | 0.7 | 0.84 | 0.69 | 0.87 | 0.93 | 0.57 | 0.77 | 0.93 | 0.02 | 0.43 | 0.98 | -0.03 | 0.82 | 0.58 | 0.79 | Growth Rate (U2OS; 0 h, replicate number 2): 0.57; Growth Rate (HEK-293T; 0 h, replicate number 2): -0.84
CC(=O)O.NCCCc1c(C(=O)O)[nH]c2ccc(C(=O)Nc3ccccc3)cc12 | 0.6 |  | 0.77 |  | 0.92 |  | 0.93 |  | 0.19 |  |  | 0.96 | 0.93 | 0.95 | 0.33 | 0.82 | 0.53 | 0.76 |  | 0.87 | Growth Rate (Fibroblast; 18 h, replicate number 1): 0.95; Growth Rate (Fibroblast; 18 h, replicate number 2): 0.71; Growth Rate (HEK-293T; 0 h, replicate number 2): 0.53
Cc1ncc(C(=O)Nc2cc(C(C)(C)C)on2)cc1-n1cc(-c2cnn(C)c2C)nn1.Cl | 0.92 | 0.23 | 0.95 |  |  | 0.92 |  | 0.58 | -0.6 | 0.99 | 0.65 |  |  | 0.69 | 0.14 | 0.79 |  | 0.8 | 0.94 |  | Growth Rate (Fibroblast; 12 h, replicate number 1): 0.95
COC(=O)Nc1nc2c(s1)-c1c(c(-c3cccnc3)nn1-c1ccc(C3(N(C)C)CC3)cc1)CC2.Cl.Cl | -0.29 | -1 |  | 0.96 |  | 0.74 |  | 0.64 | -1 |  |  |  |  |  |  |  | -0.99 |  |  |  | 
Cc1ccc(C(=O)Nc2cc(N3CCN(C)CC3)cc(C(F)(F)F)c2)cc1-n1cc(-c2cnn(C)c2C)nn1.Cl |  | 0.61 | 0.18 | 0.58 | 0.92 | 0.73 | 0.82 | 0.66 | -0.85 |  |  |  |  | 0.66 | -0.05 | 0.19 | 0.94 | 0.35 | 0.77 | 0.71 | Growth Rate (Fibroblast; 12 h, replicate number 1): 0.43; Growth Rate (Fibroblast; 18 h, replicate number 1): 0.22; Growth Rate (Fibroblast; 18 h, replicate number 2): 0.15; Growth Rate (Fibroblast; 24 h, replicate number 1): 0.44
Cc1ccc(-n2nc(C(C)(C)C)cc2NC(=O)Nc2ccccc2F)cc1 |  |  |  | 0.72 | 0.79 |  | 0.72 | 0.85 | -0.4 |  |  |  |  | -0.08 | 0.02 | 0.82 |  | 0.9 | 0.67 | 0.91 | Growth Rate (Fibroblast; 12 h, replicate number 1): 0.68; Growth Rate (Fibroblast; 18 h, replicate number 1): 0.86; Growth Rate (Fibroblast; 24 h, replicate number 1): 0.91; Growth Rate (U2OS; 0 h, replicate number 2): -0.52
